Residue numbers refer to the chain shown, from its start. “And” between values parts separate entries of the source, which are not always exact repeats. Equal entries are not always repeated.
Tests used:
[1] = molecular target: T1, Y140A mutant mouse 5-HT3ASR (Mus musculus, UniProt P23979, Y141A); assay: Inhibition of [^3H]granisetron binding, Y140A receptor; details: for relative increase in Ki, mutant vs wildtype: Y140A vs wildtype
T1 sequence (P23979 24-483 isoform P23979-2 Y141A): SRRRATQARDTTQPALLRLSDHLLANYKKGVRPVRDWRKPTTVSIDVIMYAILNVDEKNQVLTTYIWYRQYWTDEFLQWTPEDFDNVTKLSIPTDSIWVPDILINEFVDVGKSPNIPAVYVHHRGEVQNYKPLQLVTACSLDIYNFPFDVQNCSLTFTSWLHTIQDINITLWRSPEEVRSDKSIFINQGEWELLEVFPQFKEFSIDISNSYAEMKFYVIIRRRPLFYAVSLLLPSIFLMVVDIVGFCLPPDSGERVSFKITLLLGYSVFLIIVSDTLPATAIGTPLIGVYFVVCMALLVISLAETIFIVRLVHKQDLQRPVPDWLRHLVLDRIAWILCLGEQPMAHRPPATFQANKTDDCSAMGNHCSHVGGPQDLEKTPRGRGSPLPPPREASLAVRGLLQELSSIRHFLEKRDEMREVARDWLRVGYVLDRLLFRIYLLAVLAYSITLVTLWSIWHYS

[2] = molecular target: T2, V141A mutant mouse 5-HT3ASR (Mus musculus, UniProt P23979, V142A); assay: biochemical
T2 sequence (P23979 24-483 isoform P23979-2 V142A): T1 sequence (P23979 24-483 isoform P23979-2 Y141A) with A118Y, V119A

[3] = molecular target: T3, Q150A mutant mouse 5-HT3ASR (Mus musculus, UniProt P23979, Q151A); assay: biochemical
T3 sequence (P23979 24-483 isoform P23979-2 Q151A): T1 sequence (P23979 24-483 isoform P23979-2 Y141A) with A118Y, Q128A

[4] = molecular target: T4, Y152A mutant mouse 5-HT3ASR (Mus musculus, UniProt P23979, Y153A); assay: Inhibition of [^3H]granisetron binding, Y152A receptor; details: for relative increase in Ki, mutant vs wildtype: Y152A vs wildtype
T4 sequence (P23979 24-483 isoform P23979-2 Y153A): T1 sequence (P23979 24-483 isoform P23979-2 Y141A) with A118Y, Y130A

[5] = molecular target: T5, K153A mutant mouse 5-HT3ASR (Mus musculus, UniProt P23979, K154A); assay: biochemical
T5 sequence (P23979 24-483 isoform P23979-2 K154A): T1 sequence (P23979 24-483 isoform P23979-2 Y141A) with A118Y, K131A

[6] = molecular target: T6, N151A mutant mouse 5-HT3ASR (Mus musculus, UniProt P23979, N152A); assay: biochemical
T6 sequence (P23979 24-483 isoform P23979-2 N152A): T1 sequence (P23979 24-483 isoform P23979-2 Y141A) with A118Y, N129A

In the case of COc1cc2c3cc1Oc1cc(ccc1O)C[C@@H]1c4c(cc(OC)c(O)c4Oc4ccc(cc4)C[C@@H]3N(C)CC2)CC[N+]1(C)C [d-tc, d-tubocurarine], the Ki [1] is reported as 300 ± 120 nM, the “relative increase in Ki, mutant vs wildtype” value (“relative increase in Ki” for short) [1] is reported as 50 ± 12 fold and 50 fold and the Ki [2] is reported as 4.7 ± 0.87 nM. For the same compound, the Ki [3] was 9.3 ± 1.3 nM, the Ki [4] was 60 ± 19 nM and the “relative increase in Ki” value [4] was 10.0 ± 2.3 fold and 10 fold. For the same compound, the Ki [5] was 17 ± 3 nM and the Ki [6] was 9.3 ± 1.4 nM.

For c1ccc(Cn2c(N3CCNCC3)nc3ccccc32)cc1 [lerisetron], the Ki [1] was 2.1 ± 0.33 nM, the “relative increase in Ki” value [1] was 4.6 fold and the Ki [2] was 0.2 ± 0.02 nM. The Ki [3] was 1.1 ± 0.21 nM, the Ki [4] was 150 ± 36 nM and the “relative increase in Ki” value [4] was 190 ± 43 fold and 190 fold. For the same compound, the Ki [5] was 3 ± 0.66 nM and the Ki [6] was 3.7 ± 0.62 nM.
